Data set [1] relates to HLMs (human liver microsomes). In words: Inhibition of tofacitinib metabolism (M8 formation) in HLMs. In kind it is in vitro ADME. The conditions noted are these: for Inhibition type / Ki: substrate tofacitinib; for IC50: substrate tofacitinib at about Km, 30 min, 37°C. As for the experimental part:
(§1) All except NADPH were mixed on ice.
(§2) Statistical analysis was conducted using Student's t-test.

Data set [2] relates to RLMs (rat liver microsomes). In words: Inhibition of tofacitinib metabolism (M8 formation) in RLMs by furanocoumarins. The conditions noted are these: for inhibitory effectiveness on RLMs (screening, M8 content): 100 μM furanocoumarin, 0.3 mg/mL RLMs; for IC50: substrate tofacitinib at about Km, 30 min, 37°C. The class given is in vitro ADME. As for the experimental part:
as §1, §2

Data set [3] deals with recombinant human CYP3A4 (rCYP3A4) (Homo sapiens, UniProt P08684). Put plainly: Inhibition of tofacitinib metabolism (M8 formation) by rCYP3A4. As for the experimental part:
as §1, §2

Data set [4] relates to HLMs (human liver microsomes). Put plainly: Michaelis-Menten kinetics of tofacitinib metabolism (M8 formation) in HLMs. In kind it is in vitro ADME. The conditions noted are these: tofacitinib metabolism to M8, no inhibitor, n = 3. As for the experimental part: as §1, §2
Data set [5] can be described thus: in vivo. More on the design: species or system Sprague Dawley rats. The conditions noted are these: male, Sprague-Dawley, rat, po, 10 mg/kg. As for the experimental part: Male Sprague Dawley (SD) rats (average weighing 220–250) g were purchased from the laboratory animal center of Wenzhou Medical University, Zhejiang Province, China. Animals were maintained in a controlled environment with a 12 h light-dark cycle at 20°C–25°C and 55% ± 15% relative humidity. Diet intake was not allowed for a period of 12 h prior to the experiment. Then, water was allowed to be free and food was provided after the experiment. All the experimental procedures and protocols were reviewed and approved by the animal ethics committee of Wenzhou Medical University according to the guide for the care and use of laboratory animals (xmsq2021-0409). 36 male rats aged 8–10 weeks were randomly selected and divided into six groups for gavage. […] Blood (300 μL) was collected from the tail veins into 1.5 mL tubes at 5, 15, and 30 min and 1, 2, 3, 4, 6, 8, 12, and 24 h after administering the drugs. The supernatant was collected and stored at −20°C after centrifugation at 4000 rpm for 10 min. The samples were restored to RT before analysis. 50 μL sample was accurately drawn to 1.5 mL of EP tube, 150 μL of midazolam internal standard solution (200 ng/mL) was added to the tube, then placed and vortexed for 15 s. After centrifugation at 13, 000 rpm for 15 min, 150 µL of supernatant was prepared for the UPLC-MS/MS system to analyze.
as §2

Data set [6] relates to RLMs (rat liver microsomes). In words: Michaelis-Menten kinetics of tofacitinib metabolism (M8 formation) in RLMs. The class given is in vitro ADME. As to conditions: tofacitinib metabolism to M8, no inhibitor, n = 3. As for the experimental part:
as §1, §2

Results on three compounds are retold here after article PMC11033359 (Frontiers in Pharmacology, 2024).

“Also recorded” adds a separate entry of the source. Like-named read-outs stand apart in the source and are kept apart here.

recombinant human CYP3A4 (rCYP3A4), sequence (P08684 whole entry): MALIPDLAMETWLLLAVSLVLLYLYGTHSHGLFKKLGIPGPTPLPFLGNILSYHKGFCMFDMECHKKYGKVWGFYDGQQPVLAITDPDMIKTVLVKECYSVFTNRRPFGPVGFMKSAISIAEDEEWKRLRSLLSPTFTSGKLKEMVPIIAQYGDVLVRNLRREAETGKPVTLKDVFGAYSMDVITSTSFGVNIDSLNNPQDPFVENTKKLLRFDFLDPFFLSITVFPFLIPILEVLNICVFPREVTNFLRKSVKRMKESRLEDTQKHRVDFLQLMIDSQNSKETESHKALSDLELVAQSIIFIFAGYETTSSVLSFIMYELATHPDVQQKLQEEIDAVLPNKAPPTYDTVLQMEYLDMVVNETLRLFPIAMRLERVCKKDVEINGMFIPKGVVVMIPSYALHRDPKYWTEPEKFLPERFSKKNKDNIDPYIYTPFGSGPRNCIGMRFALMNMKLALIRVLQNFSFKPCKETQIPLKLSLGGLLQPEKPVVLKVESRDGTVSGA

Regarding `COc1c2ccoc2cc2oc(=O)ccc12` [Bergapten, 5-methoxy-psoralen], the Inhibition type entry in data set [1] is “Competitive inhibition”; in data set [1] (listed as bergapten), “competitively inhibited”; in data set [2] (RLMs, substrate tofacitinib) it was “Competitive inhibition”; in data set [2] (RLMs, substrate tofacitinib, listed as bergapten) it was “competitively inhibited”; in data set [3] (rCYP3A4, substrate tofacitinib), “Competitive inhibition”; in data set [3] (rCYP3A4, substrate tofacitinib, listed as bergapten), “competitively inhibited”. The inhibition constant (Ki) in data set [1] stood at 189 nM; in data set [2] (RLMs, substrate tofacitinib) it was 443 nM; in data set [3], 1220 nM. Further, the IC50 in data set [1] was determined as 2650 nM; in data set [2] (RLMs), 2620 nM; in data set [3], 1420 nM. Besides, the “inhibitory effectiveness on RLMs (screening, M8 content)” value in data set [2] is “potent inhibitory activity”.
On to `O=c1ccc2ccc3occc3c2o1` [Isopsoralen], for which the Inhibition type entry is reported as “competitive suppression; also recorded: Competitive inhibition” in data set [1]; “competitive suppression; also recorded: Competitive inhibition” in data set [2] (RLMs, substrate tofacitinib); “competitive suppression; also recorded: Competitive inhibition” in data set [3] (rCYP3A4, substrate tofacitinib). In addition, the Ki in data set [1] came to 1770 nM; in data set [3] (Ki, rCYP3A4, substrate tofacitinib), 15400 nM. Further, the IC50 in data set [1] was 12300 nM; in data set [2] (RLMs), 19300 nM; in data set [3] (IC50, rCYP3A4, substrate tofacitinib at about Km, 30 min, 37°C), 17100 nM. In data set [2], the “inhibitory effectiveness on RLMs (screening, M8 content)” value was “potent inhibitory activity”. Besides, the “risk of DDI with tofacitinib (from Ki)” value in data set [3] is “medium”.
`C[C@@H]1CCN(C(=O)CC#N)C[C@@H]1N(C)c1ncnc2[nH]ccc12` [tofacitinib, Tofacitinib]: the Km in data set [4] is 65.8 ± 4.75 µM; in data set [1] (bergapten 0 μM) it was 47.8 µM; in data set [1] (bergapten 0.5 μM), 53.1 µM; in data set [1] (bergapten 1 μM), 76.7 µM; in data set [1] (bergapten 2 μM), 190 µM; in data set [1] (bergapten 4 μM), approximately 5860 µM. Further, the Km worked out at 61.7 µM in data set [1] (isopsoralen 0 μM); 71.1 µM in data set [1] (isopsoralen 5 μM); 134 µM in data set [1] (isopsoralen 10 μM); 432 µM in data set [1] (isopsoralen 20 μM); 930 µM in data set [1] (isopsoralen 40 μM); 65.5 µM in data set [2] (RLMs, bergapten 0 μM). Besides, the Km in data set [2] (RLMs, bergapten 0.5 μM) stood at 72.3 µM; in data set [2] (RLMs, bergapten 1 μM), 88.6 µM; in data set [2] (RLMs, bergapten 2 μM) it was 160 µM; in data set [2] (RLMs, bergapten 4 μM), 411 µM; in data set [2] (RLMs, isopsoralen 0 μM), 77.7 µM; in data set [2] (RLMs, isopsoralen 5 μM), 114 µM. The Km was determined as 259 µM in data set [2] (RLMs, isopsoralen 10 μM); 538 µM in data set [2] (RLMs, isopsoralen 20 μM); 410 µM in data set [2] (RLMs, isopsoralen 40 μM); 76.2 ± 4.51 µM in data set [6]. Also, the Vmax in data set [4] is listed as 2.802 ± 0.0842 M8 area ratio; in data set [1] (bergapten 0 μM), 2.973 M8 area ratio; in data set [1] (bergapten 0.5 μM) it was 2.960 M8 area ratio; in data set [1] (bergapten 1 μM), 3.018 M8 area ratio; in data set [1] (bergapten 2 μM), 4.088 M8 area ratio; in data set [1] (bergapten 4 μM) it was “∼43.85 M8 area ratio”. In addition, the Vmax was 1.886 M8 area ratio in data set [1] (isopsoralen 0 μM); 1.938 M8 area ratio in data set [1] (isopsoralen 5 μM); 1.718 M8 area ratio in data set [1] (isopsoralen 10 μM); 2.148 M8 area ratio in data set [1] (isopsoralen 20 μM); 2.589 M8 area ratio in data set [1] (isopsoralen 40 μM); 8.021 M8 area ratio in data set [2] (RLMs, bergapten 0 μM). Besides, the Vmax in data set [2] (RLMs, bergapten 0.5 μM) worked out at 8.054 M8 area ratio; in data set [2] (RLMs, bergapten 1 μM) it was 8.111 M8 area ratio; in data set [2] (RLMs, bergapten 2 μM), 8.689 M8 area ratio; in data set [2] (RLMs, bergapten 4 μM), 9.555 M8 area ratio; in data set [2] (RLMs, isopsoralen 0 μM), 5.190 M8 area ratio; in data set [2] (RLMs, isopsoralen 5 μM), 5.555 M8 area ratio. In addition, the Vmax in data set [2] (RLMs, isopsoralen 10 μM) is reported as 5.529 M8 area ratio; in data set [2] (RLMs, isopsoralen 20 μM) it was 4.503 M8 area ratio; in data set [2] (RLMs, isopsoralen 40 μM), 2.664 M8 area ratio; in data set [6] it was 7.259 ± 0.1879 M8 area ratio. In addition, the CLz/F in data set [5] was 144 ± 39.3 mL/min/kg. This compound also had a t1/2z in data set [5] of 1.73 ± 0.44 h. Also, the mean residence time MRT last in data set [5] (MRT(0-t)) was determined as 2.1 ± 0.27 h. In addition, in data set [5] (MRT(0-∞)), the mean residence time MRT inf was determined as 2.19 ± 0.28 h.

For orientation: Ki means the dissociation constant of the complex between target and ligand, obtained from inhibition or displacement. A word on the IC50: it is the point on the concentration scale where inhibition reaches its midpoint. A word on the Km: it is the substrate concentration at which the rate is half of its maximum. Broadly, the MRT last is a mean duration of stay, worked out from the concentration-time curve. What is called MRT inf is a mean duration of stay, worked out from the concentration-time curve.
